Experimental data reported in patent publication US7816400B2 (The University of Hong Kong, priority 2007, dated 2010).
Like-named read-outs stand apart in the source and are kept apart here.

Assays:
[1] = test system: human atrial myocytes; assay: Action potential in human atrial myocytes, perforated patch, current clamp; assay type: cell-based
[2] = target: T1, Kv1.5 (Homo sapiens, UniProt P22460); assay: Kv1.5 channel block in stably expressing HEK 293 cells; assay type: cell-based
T1 construct: expressed in transfected cells
Description: The established HEK 293 cell lines stably expressing the hERG channel gene, Kv1.5 (Tang et al., 2007), or recombinant human cardiac KCNQ1/KCNE1 channel current (IKs) (Dong et al., 2006) was maintained separately in Dulbecco's modified eagle medium (Invitrogen) supplemented with 10% fetal bovine serum and containing 400 μg/ml G418 (for hERG or Kv1.5 channels) or 100 μg/ml hygromycin (for IKs).
The whole-cell patch-clamp technique was used for electrophysiological recording. Borosilicate glass electrodes (1.2-mm OD) were pulled with a Brown-Flamming puller (model P-97, Sutter Instrument Co, Novato, Calif., USA) and had tip resistances of 2-3 MΩ when filled with pipette solution. Membrane currents were recorded in voltage-clamp mode using an EPC-9 amplifier and Pulse software (HEKA, Lambrecht, Germany). A 3-M KCl-agar salt bridge was used as reference electrode. The tip potentials were compensated before the pipette touched the cell. After a giga-ohm seal was obtained, the cell membrane was ruptured by gentle suction to establish the whole-cell configuration. The cell membrane capacitance (pF) was directly measured using the lock-in module of the Pulse software, and used for normalizing the current in individual cells. The series resistance (Rs) was 3-5 MΩ and was compensated by 50-70% to minimize voltage errors. Perforated patch configuration was used for recording action potential in human atrial cells and IKs in HEK 293 cells as described previously (Li et al., 2002b; Dong et al., 2006). Current signals were low-pass filtered at 5 kHz and stored on the hard disk of an IBM compatible computer.
Other derivatives/analogs studied have no effect or a week inhibitory effect on Kv1.5.

[3] = target: hERG channels (Homo sapiens, UniProt Q12809); assay: cell-based
[4] = test system: isolated rabbit hearts; assay: ECG (heart rate, QTc) in isolated hypokalemic rabbit hearts, Langendorff; settings: 10 μM, hypokalemic (3 mM K+) perfusion
[5] = test system: anesthetized dogs; assay: In vivo electrophysiology (atrial ERP, QTc) in anesthetized dogs; design: species or system dog; settings: 5 mg/kg intraduodenal
[6] = test system: anesthetized dogs; assay: Experimental vagotonic AF in anesthetized dogs; assay type: in vivo, dog
[7] = HEK293, HEK 293 cells stably expressing Kv1.5, Table 3, read-out: Kv1.5 (IC50)
[8] = HEK 293 cells stably expressing Kv1.5, Table 3, read-out: Kv1.5 (IC50)
[9] = BCL 200 ms, pre-treatment (baseline)
[10] = BCL 250 ms, pre-treatment (baseline)

T1 sequence (P22460 whole entry): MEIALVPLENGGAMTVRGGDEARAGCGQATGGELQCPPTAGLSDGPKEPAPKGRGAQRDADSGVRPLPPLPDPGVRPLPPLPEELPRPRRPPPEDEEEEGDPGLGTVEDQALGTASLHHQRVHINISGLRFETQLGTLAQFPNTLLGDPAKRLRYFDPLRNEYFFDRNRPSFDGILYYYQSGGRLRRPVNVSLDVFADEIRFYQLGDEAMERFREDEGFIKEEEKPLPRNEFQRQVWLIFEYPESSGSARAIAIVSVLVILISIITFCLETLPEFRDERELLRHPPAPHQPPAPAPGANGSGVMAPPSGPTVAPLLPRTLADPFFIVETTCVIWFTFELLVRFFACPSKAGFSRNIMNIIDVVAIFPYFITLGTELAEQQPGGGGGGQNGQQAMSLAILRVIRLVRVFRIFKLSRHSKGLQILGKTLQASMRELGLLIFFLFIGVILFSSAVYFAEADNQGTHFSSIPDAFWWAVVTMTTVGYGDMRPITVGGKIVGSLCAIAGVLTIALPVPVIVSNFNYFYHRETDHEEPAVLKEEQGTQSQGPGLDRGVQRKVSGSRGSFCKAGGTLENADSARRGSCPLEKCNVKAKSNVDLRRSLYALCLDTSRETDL
hERG channels, sequence (Q12809 whole entry, the tested form may be a part): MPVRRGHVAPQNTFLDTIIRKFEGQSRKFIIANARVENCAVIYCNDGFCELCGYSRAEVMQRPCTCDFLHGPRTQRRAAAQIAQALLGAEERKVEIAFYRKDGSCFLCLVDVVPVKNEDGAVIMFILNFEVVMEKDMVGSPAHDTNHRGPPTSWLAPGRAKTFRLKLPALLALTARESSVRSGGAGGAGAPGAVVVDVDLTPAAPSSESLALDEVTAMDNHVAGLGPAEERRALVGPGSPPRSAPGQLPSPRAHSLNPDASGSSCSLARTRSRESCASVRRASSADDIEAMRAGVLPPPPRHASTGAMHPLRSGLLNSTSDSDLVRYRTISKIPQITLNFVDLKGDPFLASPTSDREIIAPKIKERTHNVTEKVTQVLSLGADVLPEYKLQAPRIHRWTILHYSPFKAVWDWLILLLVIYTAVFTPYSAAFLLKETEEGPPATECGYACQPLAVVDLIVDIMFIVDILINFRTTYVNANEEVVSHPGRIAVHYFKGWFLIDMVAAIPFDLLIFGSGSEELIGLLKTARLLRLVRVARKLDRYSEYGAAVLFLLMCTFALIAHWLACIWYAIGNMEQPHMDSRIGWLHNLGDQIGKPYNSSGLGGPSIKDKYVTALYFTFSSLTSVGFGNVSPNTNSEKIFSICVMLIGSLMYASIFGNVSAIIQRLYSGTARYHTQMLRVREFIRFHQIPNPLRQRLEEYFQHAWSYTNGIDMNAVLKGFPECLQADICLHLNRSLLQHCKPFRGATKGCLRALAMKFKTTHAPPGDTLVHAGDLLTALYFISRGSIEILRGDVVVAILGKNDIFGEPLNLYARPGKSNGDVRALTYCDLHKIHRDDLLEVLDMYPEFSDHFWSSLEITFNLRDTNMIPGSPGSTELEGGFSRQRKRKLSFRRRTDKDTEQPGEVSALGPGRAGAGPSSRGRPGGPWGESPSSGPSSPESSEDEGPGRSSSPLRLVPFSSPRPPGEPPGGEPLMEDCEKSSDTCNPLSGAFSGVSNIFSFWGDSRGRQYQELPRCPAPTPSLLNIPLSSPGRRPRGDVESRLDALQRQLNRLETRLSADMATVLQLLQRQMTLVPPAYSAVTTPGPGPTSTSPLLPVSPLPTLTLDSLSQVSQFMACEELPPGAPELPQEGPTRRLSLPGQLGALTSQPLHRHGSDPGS

SMILES | effect on Kv1.5 compared with acacetin, in words ([2]; comparative study, Table 3) | IC50 [2, 8] | IC50 [3] | other results
Nc1ccncc1 [4-AP, reference compound] | – | – | – | rate dependence of APD50, APD75, APD90 prolongation, in words ([1]; 50 μM 4-AP (data not shown)): reverse rate-dependent prolongation; action potential duration, in words ([1]; 50 μM 4-AP, 2 Hz): prolonged APD50 more than APD90
COc1ccc(-c2cc(=O)c3c(O)cc(OC(C)=O)cc3o2)cc1 [A-2-11] | less effect | – | – | inhibition at 100 µM [2, 7]: < 50%
COc1ccc(-c2cc(=O)c3c(O)cc(OC(=O)c4ccccc4)cc3o2)cc1 [A-2-12] | less effect | – | – | inhibition at 100 µM [2, 7]: < 50%
COc1ccc(-c2cc(=O)c3c(O)cc(OC)cc3o2)cc1 [A-2-13] | less effect | – | – | inhibition at 100 µM ([2]; HEK293, read-out: Kv1.5 (IC50, μM)): < 50%
CCOc1cc(O)c2c(=O)cc(-c3ccc(OC)cc3)oc2c1 [A-2-14] | less effect | – | – | inhibition at 100 µM [2, 7]: < 50%
COc1ccc(-c2cc(=O)c3cc(Cl)ccc3o2)cc1 [A-5] | less effect | 23.5 µM | 13 µM | –
Oc1cc(O)c2c(c1)O[C@H](c1ccc(O)c(O)c1)[C@@H](O)C2 [A-9] | no effects | > 100 µM | > 100 µM | –
CC1OC(OCC2OC(Oc3c(-c4ccc(O)c(O)c4)oc4cc(O)cc(O)c4c3=O)C(O)C(O)C2O)C(O)C(O)C1O (stereo not shown) [A-11] | no effects | – | > 100 µM | IC50 [2]: > 100 µM
C=C[C@H]1C[N@@]2CC[C@H]1C[C@@H]2[C@@H](O)c1ccnc2ccc(OC)cc12 [Quinidine, quinidine] | – | – | – | QTc interval of ECG, in words [4]: prolonged QTc interval; heart rate, in words [4]: slowed heart rate; QTc interval of ECG, in words ([4]; listed as quinidine): significantly increased
CC(C)NCC(O)c1ccc(NS(C)(=O)=O)cc1 (stereo not shown) [Sotalol, sotalol] | – | – | – | left atrial ERP (ms), BCL 200 ms ([5]; BCL 200 ms, 2 h post-treatment): 105.1 ± 5.1 ms; left atrial ERP (ms), BCL 200 ms [5, 9]: 88.8 ± 3.7 ms; right atrial ERP (ms), BCL 200 ms [5, 9]: 88.7 ± 3.9 ms; left atrial ERP (ms), BCL 250 [5, 10]: 94.3 ± 3.1 ms; right atrial ERP (ms), BCL 250 [5, 10]: 96.3 ± 8.3 ms; summarized anti-AF efficacy ([6]; 5 mg/kg intraduodenal, vehicle 0%): 60%; animals in which sustained AF was not observed ([6]; 5 mg/kg intraduodenal, vehicle: sustained AF in 100%): 40%; incidence of AF, in words ([6]; acacetin 2.5, 5, 10 mg/kg, sotalol 5 mg/kg, 1.5-2.5 h after intraduodenal administration): reduced the incidence of AF

Now from value to compound, other results behind:

effect on Kv1.5 compared with acacetin, in words ([2]; comparative study, Table 3) | IC50 [2, 8] | SMILES | IC50 [3] | other results
– | 2.04 µM | COc1ccc(C(=O)Oc2cc(O)cc3oc(-c4ccc(OC)cc4)cc(=O)c23)cc1 [A-2] | 4.1 µM | ion channel selectivity for Kv1.5 and hERG channels compared with acacetin, in words ([2]; comparative study, Table 3): less ion channel selectivity
less effect | 9 µM | COc1ccc(-c2cc(=O)c3ccccc3o2)cc1 [A-4] | – | –
less effect | 13.7 µM | COc1ccc(-c2cc(=O)c3cc(C)ccc3o2)cc1 [A-6] | – | –
no effects | > 100 µM | O=c1cc(-c2ccccc2)oc2cc(O)c(O)c(O)c12 [A-12] | > 100 µM | –
